Laboratory results: US5911993A, “Homeopathic antidiabetic treatment” (priority 1997, dated 1999)

Legend:
diabetes models = test: blood sugar in mice diabetes models made by injecting Tetraoxymidine; assay type: in vivo, Kumming species mice; details: for Blood sugar value, After Use / Reducer rate (-.increment.X%) / Blood sugar value, Before Use: 11 female mice, 0.2 ml/mouse/day; for Blood sugar value, After Use: 6 days after filling the gastric, 0.5 mg/ml powder; for Reducer rate (-.increment.X%) / sequence of reducing blood sugar: 6 days; for Reducer rate (-.increment.X%): 0.5 mg/ml; for Blood sugar value, Before Use: baseline before 0.5 mg/ml powder
Method: Then, an animal experiment was conducted using a powder and concentrated powder from the methods of steps of FIGS. 2 through 5. The experimental method is as follows: Separate 88 Kumming species mice randomly to reference group, DSP group, DAS group, DAS 1, DAS 2, and DAS 3 groups, Damicron group, and Youjiangtang group, 11 female mice in each group. Use the mice to make diabetes models by injecting Tetraoxymidine, and compare experiment group with known DSP, Damicron, Youjiangtang (as the standard sample). The dose for every group: 0.5 mg/ml powder, every day 0.2 ml for every mouse, and every day 0.2 ml sodium chloride solution for the reference group only. Take blood to measure blood sugar value 6 days after filling the gastric.

[1] = system: non-insulin dependent type diabetes; test: clinical experiments on humans, non-insulin dependent type diabetes; details: human, in vivo
Method: (§1) Clinical experiments were also conducted on humans from various provinces of China. Five examples of these clinical experiments are as follows (in each experiment each tablet had 20 mg of non-concentrated powder of Echevaria glauca, Sinocrassula berger, Crassulaceae according to the invention): […]

[2] = system: polychromatic erythrocytes; test: Mouse marrow micronucleus experiment; assay type: in vivo, Kumming species mouse
Method: 2 Mouse marrow micronucleus experiment:
Adopting first class qualified Kumming species mouse (provided by animal house of CMA) whose weight are 24~30 g. Making 3 DAS dose groups as 10, 600, 1200 mg/kg plus a positive (cyclophosphamide 30 mg/kg, inject to stomach 2 times) and a negative reference group, 10 mice for each group, half male and half female. Filling the gastric of each mouse two days continuously, and executing the mouse 6 hours after last filling, taking sternum marrow to make thin section as routine, coloring to red. Counting 1000 polychromatic erythrocytes for each mouse, observing polychromatic erythrocytes which contains micronucleus and calculating the rate of micronucleus cell.

sperm = test: Mouse sperm terata experiment; assay type: in vivo, Kumming species mouse
Method: 3 Mouse sperm terata experiment:
Adopting first class qualified Kumming species mouse (provided by animal house of CMA) whose weight are 27~36 g. Making 3 DAS dose groups as 10, 600, 1200 mg/kg plus a positive (cyclophosphamide 30 mg/kg, inject to stomach 5 days) and a negative reference group. Filling the gastric of each mouse for each of 5 days continuously, and executing the mouse at 35th day after first filling, taking epididymis of both sides, coloring, observing 1000 sperms for each mouse and calculating the ratio of sperm mutation.

[3] = system: insulin dependent type diabetes; test: clinical experiment on human, insulin dependent type diabetes; assay type: in vivo, humans; details: Example 2, 20 units insulin injected
Method: as §1

Row | Molecule | Blood sugar value, After Use (diabetes models) | Reducer rate (-.increment.X%) (diabetes models) | Blood sugar value, Before Use (diabetes models) | sequence of reducing blood sugar (diabetes models) | other results
1 | Cc1ccc(S(=O)(=O)NC(=O)NN2CC3CCCC3C2)cc1 (stereo not drawn) [DMC] | 110.50 mg % | 42.55% | 292.35 mg % | DAS2 >DAS3 >DAS1>DSP>YJT>DMC | –
2 | COc1ccc(Cl)cc1C(=O)NCCc1ccc(S(=O)(=O)NC(=O)NC2CCCCC2)cc1 [YJT] | 162.28 mg % | 45.28% | 296.38 mg % | DAS2 >DAS3 >DAS1>DSP>YJT>DMC | side effect (a sign of low blood sugar) [1]: became dizzy
3 | O=P1(N(CCCl)CCCl)NCCCO1 (stereo not drawn) [cyclophosphamide] | – | – | – | – | Ratio of cell micronucleus ([2]; Positive R.G., 30 mg/kg, 2 times): 45.3%; P vs negative group, micronucleus ([2]; positive reference group): < 0.01; Variant rate (sperm; Positive R.G., 30 mg/kg, 5 days): 61.9%; Variant sperm number (sperm; Positive R.G., 30 mg/kg, 5 days, 10000 sperm observed): 619; P vs negative group, sperm terata (sperm; positive reference group): < 0.01
4 | insulin | – | – | – | – | high or low blood sugar before DAS [3]: became high or low blood sugar occasionally
